In publication PMC9815576, “Cell-surface protein YwfG of Lactococcus lactis binds to α-1,2-linked mannose” (PLOS ONE, 2023):
“Also recorded” adds a separate entry of the source.

Test system: YwfG28–511
Experiment: ITC of sugars against YwfG28–511
Assay type: binding, Lactococcus lactis subsp. lactis G50
Conditions: 100 μM YwfG28–511, 25°C
From the text: (§1) A MicroCal iTC200 system (Malvern Panalytical, Almelo, Netherlands) was used to measure enthalpy changes associated with interactions between the YwfG variants and the following yeast cell-wall components: the monosaccharides D-glucose, D-galactose, D-mannose, D-fucose, N-acetyl-D-glucosamine (GlcNAc), and 2-(acetylamino)-2-deoxy-D-galactose (GalNAc) (Sigma-Aldrich); α-1,2-, α-1,3-, α-1,4-, and α-1,6-mannobiose (Dextra Laboratories, Reading, UK); mannan from S. cerevisiae (Sigma-Aldrich); and yeast mannoproteins.
(§2) A solution of YwfG variant (100 μM YwfG28–270, YwfG28–336, YwfG28–511, or MubR4 in 20 mM Tris-HCl [pH 7.5]) was placed in a 200-μL calorimeter cell, and test solution (10 mM for monosaccharides, 2 mM for monosaccharides and mannobioses, 10 mg mL^−1 for yeast mannan, OD280 1.0 for mannoproteins) was loaded into the injection syringe. The test solution was titrated into the sample cell as a sequence of 20 injections of 2-μL aliquots each. All experiments were performed at 25°C.

Structure (SMILES) | Interaction with YwfG28–511 observed by ITC
C[C@H]1OC(O)[C@H](O)[C@@H](O)[C@H]1O (stereo partly drawn) [D-fucose] | only combination of variant and monosaccharide that showed an interaction was YwfG28–270 with D-mannose
O=C[C@H](O)[C@@H](O)[C@@H](O)[C@H](O)CO [D-galactose] | only combination of variant and monosaccharide that showed an interaction was YwfG28–270 with D-mannose
OC[C@H]1OC(O)[C@H](O)[C@@H](O)[C@@H]1O (stereo partly drawn) [D-glucose] | only combination of variant and monosaccharide that showed an interaction was YwfG28–270 with D-mannose
OC[C@H]1OC(O)[C@@H](O)[C@@H](O)[C@@H]1O (stereo partly drawn) [D-mannose] | only combination of variant and monosaccharide that showed an interaction was YwfG28–270 with D-mannose
CC(=O)N[C@@H](C=O)[C@@H](O)[C@@H](O)[C@H](O)CO [GalNAc, 2-(acetylamino)-2-deoxy-D-galactose] | only combination of variant and monosaccharide that showed an interaction was YwfG28–270 with D-mannose
CC(=O)N[C@@H]1[C@@H](O)[C@H](O)[C@@H](CO)O[C@@H]1O [GlcNAc, N-acetyl-D-glucosamine] | only combination of variant and monosaccharide that showed an interaction was YwfG28–270 with D-mannose

Test system: MubR4 (YwfG residues 860–1034)
Experiment: ITC of monosaccharides against MubR4
Assay type: binding, Lactococcus lactis subsp. lactis G50
Conditions: 100 μM MubR4, 25°C
From the text: as §1, §2

Structure (SMILES) | Interaction with MubR4 observed by ITC
C[C@H]1OC(O)[C@H](O)[C@@H](O)[C@H]1O (stereo partly drawn) [D-fucose] | only combination of variant and monosaccharide that showed an interaction was YwfG28–270 with D-mannose
O=C[C@H](O)[C@@H](O)[C@@H](O)[C@H](O)CO [D-galactose] | only combination of variant and monosaccharide that showed an interaction was YwfG28–270 with D-mannose
OC[C@H]1OC(O)[C@H](O)[C@@H](O)[C@@H]1O (stereo partly drawn) [D-glucose] | only combination of variant and monosaccharide that showed an interaction was YwfG28–270 with D-mannose
OC[C@H]1OC(O)[C@@H](O)[C@@H](O)[C@@H]1O (stereo partly drawn) [D-mannose] | only combination of variant and monosaccharide that showed an interaction was YwfG28–270 with D-mannose
CC(=O)N[C@@H](C=O)[C@@H](O)[C@@H](O)[C@H](O)CO [GalNAc, 2-(acetylamino)-2-deoxy-D-galactose] | only combination of variant and monosaccharide that showed an interaction was YwfG28–270 with D-mannose
CC(=O)N[C@@H]1[C@@H](O)[C@H](O)[C@@H](CO)O[C@@H]1O [GlcNAc, N-acetyl-D-glucosamine] | only combination of variant and monosaccharide that showed an interaction was YwfG28–270 with D-mannose

Test system: YwfG28–336
Experiment: ITC of sugars against YwfG28–336
Assay type: binding, Lactococcus lactis subsp. lactis G50
Conditions: 100 μM YwfG28–336, 25°C
From the text: as §1, §2

Structure (SMILES) | Interaction with YwfG28–336 observed by ITC
C[C@H]1OC(O)[C@H](O)[C@@H](O)[C@H]1O (stereo partly drawn) [D-fucose] | only combination of variant and monosaccharide that showed an interaction was YwfG28–270 with D-mannose
O=C[C@H](O)[C@@H](O)[C@@H](O)[C@H](O)CO [D-galactose] | only combination of variant and monosaccharide that showed an interaction was YwfG28–270 with D-mannose
OC[C@H]1OC(O)[C@H](O)[C@@H](O)[C@@H]1O (stereo partly drawn) [D-glucose] | only combination of variant and monosaccharide that showed an interaction was YwfG28–270 with D-mannose
OC[C@H]1OC(O)[C@@H](O)[C@@H](O)[C@@H]1O (stereo partly drawn) [D-mannose] | only combination of variant and monosaccharide that showed an interaction was YwfG28–270 with D-mannose
CC(=O)N[C@@H](C=O)[C@@H](O)[C@@H](O)[C@H](O)CO [GalNAc, 2-(acetylamino)-2-deoxy-D-galactose] | only combination of variant and monosaccharide that showed an interaction was YwfG28–270 with D-mannose
CC(=O)N[C@@H]1[C@@H](O)[C@H](O)[C@@H](CO)O[C@@H]1O [GlcNAc, N-acetyl-D-glucosamine] | only combination of variant and monosaccharide that showed an interaction was YwfG28–270 with D-mannose

Molecular target: YwfG28–270 (L-type lectin domain of YwfG) (Lactococcus lactis subsp. lactis, UniProt S6FKX6)
Experiment: Isothermal titration calorimetry (ITC) of sugars, mannan and mannoproteins against YwfG28–270
Assay type: binding, Lactococcus lactis subsp. lactis G50
Conditions: not given
From the text: as §1, §2

Sequence of YwfG28–270 (L-type lectin domain of YwfG) (S6FKX6 entry or part of it): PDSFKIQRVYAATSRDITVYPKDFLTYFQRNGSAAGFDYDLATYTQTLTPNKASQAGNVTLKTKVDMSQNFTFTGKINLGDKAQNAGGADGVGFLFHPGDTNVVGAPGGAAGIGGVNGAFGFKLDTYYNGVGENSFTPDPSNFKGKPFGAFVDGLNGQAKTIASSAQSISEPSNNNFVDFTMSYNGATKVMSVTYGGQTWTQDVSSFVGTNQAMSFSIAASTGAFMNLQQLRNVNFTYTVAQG

Structure (SMILES) | Kd [µM]
OC[C@H]1OC(O)[C@@H](O)[C@@H](O)[C@@H]1O (stereo partly drawn) [D-mannose] | 500 ± 37

Same assay, conditions: 100 μM YwfG28–270, 25°C

Structure (SMILES) | Interaction with YwfG28–270 observed by ITC
C[C@H]1OC(O)[C@H](O)[C@@H](O)[C@H]1O (stereo partly drawn) [D-fucose] | only combination of variant and monosaccharide that showed an interaction was YwfG28–270 with D-mannose
O=C[C@H](O)[C@@H](O)[C@@H](O)[C@H](O)CO [D-galactose] | only combination of variant and monosaccharide that showed an interaction was YwfG28–270 with D-mannose
OC[C@H]1OC(O)[C@H](O)[C@@H](O)[C@@H]1O (stereo partly drawn) [D-glucose] | only combination of variant and monosaccharide that showed an interaction was YwfG28–270 with D-mannose
OC[C@H]1OC(O)[C@@H](O)[C@@H](O)[C@@H]1O (stereo partly drawn) [D-mannose] | only interaction observed; also recorded: showed an interaction
CC(=O)N[C@@H](C=O)[C@@H](O)[C@@H](O)[C@H](O)CO [GalNAc, 2-(acetylamino)-2-deoxy-D-galactose] | only combination of variant and monosaccharide that showed an interaction was YwfG28–270 with D-mannose
CC(=O)N[C@@H]1[C@@H](O)[C@H](O)[C@@H](CO)O[C@@H]1O [GlcNAc, N-acetyl-D-glucosamine] | only combination of variant and monosaccharide that showed an interaction was YwfG28–270 with D-mannose

Same assay, conditions: ITC, 25°C, 100 μM YwfG28–270 in 20 mM Tris-HCl pH 7.5; D-mannose: fixed stoichiometry (N = 1)

Structure (SMILES) | N (sites), stoichiometry
OC[C@H]1OC(O)[C@@H](O)[C@@H](O)[C@@H]1O (stereo partly drawn) [D-mannose] | (1.00) sites

Same assay, conditions: ITC, 25°C, YwfG28–270; D-mannose: fixed stoichiometry (N = 1)

Structure (SMILES) | ΔH, enthalpy change [kcal/mol] | ΔS, entropy change [cal/mol/deg]
OC[C@H]1OC(O)[C@@H](O)[C@@H](O)[C@@H]1O (stereo partly drawn) [D-mannose] | -2.098 ± 0.08359 | 8.07

Test system: yeast X2180-1A
Experiment: Inhibition by sugars of yeast cell aggregation induced by YwfG variants
Assay type: cell-based, Saccharomyces cerevisiae
Conditions: sugar 1 mM as printed
Method: Saccharomyces cerevisiae X2180-1A was cultured in YPD medium to an OD600 of 0.6.

Structure (SMILES) | Inhibition of aggregation induced by YwfG28–336 | Inhibition of aggregation induced by YwfG28–511
OC[C@H]1OC(O)[C@@H](O)[C@@H](O)[C@@H]1O (stereo partly drawn) [D-mannose] | inhibited | not by YwfG28–270 or YwfG28–511 was inhibited
